According to patent US20040109897A1, “Free flowing solid antimicrobial composition” (priority 2002, published 2004):

Assays:
[1] = Free flow preservation (caking) of OPA formulations on exposure to temperature and humidity; format: physicochemical; conditions: for Caking tendency: 0 wt. % of anti-caking agent; for Time to caking: untreated
Source text: Samples of OPA containing 0.01-0.1% water were ground and mixed with various additives at levels of 0.2% to 5%. The samples were mixed on high-speed rollers for one hour followed by exposure to various temperatures and levels of humidity. The samples were examined at various time intervals for flow properties. Complete caking was defined as all sample stuck together in one solid block. For ease of interpretation and comparison, the following notation was used: 1) Formulations that caked in under two weeks were assigned one star (*); 2). Formulations that caked in two to four weeks were assigned two stars; 3) Formulations that caked in four to eight weeks were assigned three stars; 4) Formulations stable (flowable) over eight weeks were assigned four stars.

[2] = Flowability of OPA after one hour on high-speed rollers; format: physicochemical; conditions: granular OPA in capped 100 ml jar, no additive
Description: Ortho-phthalic aldehyde (13.04 g, granular) was placed in a 100 ml jar. The jar was tightly capped and placed on high-speed rollers for one hour. […] The lid was removed and the sample was placed in a humidity oven set at 40° C. and 90% RH (relative humidity). After 4 hours of exposure the sample had no flow.
Ortho-phthalic aldehyde (10.04 g, granular) was placed in a 100 ml jar. The jar was tightly capped and placed on high-speed rollers for one hour. […] The lid was removed and the sample was placed in a humidity oven set at 30° C. and 90% RH (relative humidity).
Ortho-phthalic addehyde (12.04 g, granular) was placed in a 100 ml jar. The jar was tightly capped and placed on high-speed rollers for one hour. […] The lid was removed and the sample was placed in a humidity oven set at 40° C. and 70% RH (relative humidity).

## O=Cc1ccccc1C=O [Control, ortho-phthalic aldehyde]
[1]; 22.5° C. and 65% RH
  Caking tendency: * (Formulations that caked in under two weeks were assigned one star (*))
[1]; 30° C. and 90% RH
  Caking tendency: * (Formulations that caked in under two weeks were assigned one star (*))
  Time to caking: one day
[1]; 40° C. and 70% RH
  Caking tendency: * (Formulations that caked in under two weeks were assigned one star (*))
[1]; 40° C. and 90% RH
  Caking tendency: * (Formulations that caked in under two weeks were assigned one star (*))
  Time to caking: half a day
[1]; 4 hours at 40° C. and 70% RH
  Flow after exposure: no free flow
[1]; 4 hours at 40° C. and 90% RH
  Flow after exposure: no flow
[1]; 24 hours at 30° C. and 90% RH
  Flow after exposure: no free flow
[2]
  Flowability after one hour on high-speed rollers: very poor flowability
